Tests used:
[1] = system: passive cutaneous anaphylactic reaction; experiment: Passive cutaneous anaphylactic reaction test in rats (oral); format: in vivo; settings: for oral activity relative to reference compounds RCB and RCC: times as active as RCB and RCC
Source text: A.2. Passive cutaneous anaphylactic reaction test in rats (oral)

[2] = Acute intravenous toxicity in mice; settings: mouse, in vivo, triethanolamine salt, aqueous solution, observed 7 days
Procedure: T.2. Acute intravenous toxicity in mice
Mice were each treated intravenously with an aqueous solution of the triethanolamine salt of one of the compounds of formula IV, and they were observed during the next 7 days. The LD50 figures obtained (doses lethal to 50% of mice tested) are shown below in Table III, expressed in mg/kg animal body weight.
The aqueous solutions used were prepared as follows:- A mixture of the test compound and water was treated gradually with triethanolamine until complete solution occurred. The solution was then diluted with water to a concentration of either 1% w/v or 2% w/v. Various volumes of these solutions were then administered to the mice.

[3] = system: passive cutaneous anaphylactic reaction; experiment: Passive cutaneous anaphylactic reaction test in rats (intravenous); format: in vivo; settings: relative to reference compound RCA (= 1)
Source text: A.1. Passive cutaneous anaphylactic reaction test in rats (intravenous)

beagle dogs = experiment: Emetic activity in dogs; format: in vivo; settings: four beagle dogs, oral gelatine capsules, observed at least 2.5 hours
Source text: The emetic activity in dogs of test compound A was compared with that of the reference compound RCA.
Four beagle dogs, each of approximately 12 kg body weight, were starved overnight and then were given orally gelatine capsules containing either test compound A or RCA.
The same four animals were used to test both compounds.

[4] = Acute oral toxicity in mice; settings: mouse, in vivo, observed 3 days
Source text: T.1. Acute oral toxicity in mice
Mice were each treated orally with one of the compounds of formula IV, and they were observed during the next 3 days. The LD50 figures obtained (doses lethal to 50% of mice tested) are shown in Table II, expressed in mg/kg animal body weight.

Compound	Relative Activity [3]	also measured
CCCOc1ccc(NC=C(C#N)C(=O)OCC)cc1-c1nc2[nH]nnc2c(=O)[nH]1 [C, 2-[5-(2-cyano-2-ethoxycarbonylvinylamino)-2-propoxyphenyl]-8-azapurin-6-one]	10	oral activity relative to reference compounds RCB and RCC [1]: over 2.5 times; LD50 at 168 h ([2]; test solution 2% w/v): 290 mg/kg
CCCOc1ccc(NC=C(C(=O)OCC)C(=O)OCC)cc1-c1nc2[nH]nnc2c(=O)[nH]1 [Compound A, 2-[5-{2,2-bis(ethoxycarbonyl)vinylamino}-2-propoxyphenyl]-8-azapurin-6-one]	5	oral activity relative to reference compounds RCB and RCC [1]: over 5 times; vomiting (emetic activity) (beagle dogs; 200 mg/kg): caused vomiting in none of the four dogs
CCCOc1ccc(NC=C(C(C)=O)C(C)=O)cc1-c1nc2[nH]nnc2c(=O)[nH]1 [Compound B, 2-[5-(2,2-diacetylvinylamino)-2-propoxyphenyl]-8-azapurin-6-one]	50	LD50 at 168 h ([2]; test solution 1% w/v): 350 mg/kg
CCOC(=O)C(=CNc1ccc(OC)c(-c2nc3[nH]nnc3c(=O)[nH]2)c1)C(=O)OCC [Compound E, 2-[5-{2,2-bis(ethoxycarbonyl)vinylamino}-2-methoxyphenyl]-8-azapurin-6-one]	5	LD50 at 168 h ([2]; test solution 1% w/v): 320 mg/kg; LD50 at 72 h [4]: > 1000 mg/kg
CCCOc1ccc(NC=C(C(=O)OC)C(=O)OC)cc1-c1nc2[nH]nnc2c(=O)[nH]1 [Compound G, 2-[5-{2,2-bis(methoxycarbonyl)vinylamino}-2-propoxyphenyl]-8-azapurin-6-one]	50	LD50 at 168 h ([2]; test solution 2% w/v): 280 mg/kg
CCCOc1ccc(N/C(=C\C(=O)OC)C(=O)OC)cc1-c1nc2[nH]nnc2c(=O)[nH]1 [Compound H, (Z)-2-[5-{1,2-bis(methoxycarbonyl)vinylamino}-2-propoxyphenyl]-8-azapurin-6-one]	15	LD50 at 168 h ([2]; test solution 2% w/v): 410 mg/kg
COc1ccc(NC(C)=CC(C)=O)cc1-c1nc2[nH]nnc2c(=O)[nH]1 [Compound I, 2-[5-(1-acetylprop-1-en-2-ylamino)-2-methoxyphenyl]-8-azapurin-6-one]	5	LD50 at 168 h ([2]; test solution 1% w/v): 470 mg/kg
CCCOc1ccc(C#N)cc1-c1nc2[nH]nnc2c(=O)[nH]1 [Compound L, 2-(5-cyano-2-propoxyphenyl)-8-azapurin-6-one]	1	–
CCCOc1ccc(C(N)=O)cc1-c1nc2[nH]nnc2c(=O)[nH]1 [Compound M, 2-(5-carbamoyl-2-propoxyphenyl)-8-azapurin-6-one]	10	–
CCCOc1ccc(C(=O)NC(C)(C)C)cc1-c1nc2[nH]nnc2c(=O)[nH]1 [Compound N, 2-(5-N-t-butylcarbamoyl-2-propoxyphenyl)-8-azapurin-6-one]	50	LD50 at 72 h [4]: > 1000 mg/kg
CCCOc1ccc(NC(=O)NC(C)C)cc1-c1nc2[nH]nnc2c(=O)[nH]1 [Compound O, 2-[2-propoxy-5-(3-isopropylureido)phenyl]-8-azapurin-6-one]	30	LD50 at 72 h [4]: > 1000 mg/kg
CCCNC(=O)Nc1ccc(OCCC)c(-c2nc3[nH]nnc3c(=O)[nH]2)c1 [Compound P, 2-[2-propoxy-5-(3-propylureido)phenyl]-8-azapurin-6-one]	2	–
CCCOc1ccc(NC(=S)NC)cc1-c1nc2[nH]nnc2c(=O)[nH]1 [Compound Q, 2-[5-(3-methyl-2-thioureido)-2-propoxyphenyl]-8-azapurin-6-one]	10	–
CCCNC(=S)Nc1ccc(OCCC)c(-c2nc3[nH]nnc3c(=O)[nH]2)c1 [Compound R, 2-[2-propoxy-5-(3-propyl-2-thioureido)phenyl]-8-azapurin-6-one]	0.2	LD50 at 72 h [4]: > 1000 mg/kg
CCCOc1ccc(NC(N)=O)cc1-c1nc2[nH]nnc2c(=O)[nH]1 [Compound S, 2-(2-propoxy-5-ureidophenyl)-8-azapurin-6-one]	5	–
CCCOc1ccc(-c2nnn[nH]2)cc1-c1nc2[nH]nnc2c(=O)[nH]1 [Compound T, 2-[2-propoxy-5-(tetrazol-5-yl)phenyl]-8-azapurin-6-one]	2	–
CCCOc1ccc(NC2=C(C(=O)OCC)CCC2)cc1-c1nc2[nH]nnc2c(=O)[nH]1 [Compound U, 2-[5-(2-ethoxycarbonylcyclopent-1-enylamino)-2-propoxyphenyl]-8-azapurin-6-one]	5	LD50 at 168 h ([2]; test solution 2% w/v): 220 mg/kg
CCCOc1ccc(C(=O)N(CC)CC)cc1-c1nc2[nH]nnc2c(=O)[nH]1 [Compound V, 2-(5-N,N-diethylcarbamoyl-2-propoxyphenyl)-8-azapurin-6-one]	3	–
CCCOc1ccc(NC=C(C(C)=O)C(=O)OCC)cc1-c1nc2[nH]nnc2c(=O)[nH]1 [D, 2-[5-(2-acetyl-2-ethoxycarbonylvinylamino)-2-propoxyphenyl]-8-azapurin-6-one]	10	LD50 at 168 h ([2]; test solution 2% w/v): 270 mg/kg
COc1ccc(NC=C(C(C)=O)C(C)=O)cc1-c1nc2[nH]nnc2c(=O)[nH]1 [F, 2-[5-(2,2-diacetylvinylamino)-2-methoxyphenyl]-8-azapurin-6-one]	5	–
CCCOc1ccc(N=NC(C(C)=O)C(C)=O)cc1-c1nc2[nH]nnc2c(=O)[nH]1 [J, 2-[5-(2,4-dioxopent-3-ylazo)-2-propoxyphenyl]-8-azapurin-6-one]	10	LD50 at 72 h [4]: > 1000 mg/kg
CCCOc1ccc(N=NC(C(=O)OCC)C(=O)OCC)cc1-c1nc2[nH]nnc2c(=O)[nH]1 [K, 2-[5-{bis(ethoxycarbonyl)methylazo}-2-propoxyphenyl]-8-azapurin-6-one]	2.5	LD50 at 168 h ([2]; test solution 2% w/v): 255 mg/kg
CCCOc1ccccc1-c1nc2nn[nH]c2c(=O)[nH]1 [RCA, 2-(2-propoxyphenyl)-8-azapurin-6-one, reference compound]	1	vomiting (emetic activity) (beagle dogs; 100 mg/kg): caused vomiting in all four dogs
CCCOc1ccc(S(=O)(=O)N(C)C(C)C)cc1-c1nc2[nH]nnc2c(=O)[nH]1 [RCB, 2-[2-propoxy-5-(N-methyl-N-isopropylsulphamoyl)-phenyl]-8-azapurin-6-one, reference compound]	–	oral activity of RCB and RCC compared with each other [1]: approximately equiactive orally
CCCOc1ccc(S(=O)(=O)CCC)cc1-c1nc2[nH]nnc2c(=O)[nH]1 [RCC, 2-(2-propoxy-5-propylsulphonylphenyl)-8-azapurin-6-one, reference compound]	–	oral activity of RCB and RCC compared with each other [1]: approximately equiactive orally
CCCOc1ccc(C(=O)N(C)C(C)C)cc1-c1nc2[nH]nnc2c(=O)[nH]1 [W, 2-(5-N-methyl-N-isopropylcarbamoyl-2-propoxyphenyl)-8-azapurin-6-one]	5	–

From patent US4167568A, “8-Azapurin-6-one derivatives” (May & Baker Limited, priority 1976, dated 1979)
